Publication PMC5663708, “Novel Benzylidene Thiazolidinedione Derivatives as Partial PPARγ Agonists and their Antidiabetic Effects on Type 2 Diabetes” (Scientific Reports, 2017)

Tests used:
[1] = tested on: HepG2 human hepatocellular liver carcinoma cell line; experiment: XTT in vitro hepatotoxicity assay on HepG2 cells; format: cell-based; conditions: at 1000 μM
Protocol: (§1) HepG2 cells are considered as a useful model to study in vitro xenobiotic metabolism and liver toxicity. In particular, HepG2 cells are able to activate and detoxify xenobiotics and, they are the reason why these cells are intensively used in toxicology[58],[59]. Hepatotoxicity was determined using the XTT assay.
(§2) The final DMSO concentration was set at <0.1%. Rosiglitazone and Pioglitazone were used as positive controls. IC50 values and cell viability % were calculated.

MDCK-II monolayers = experiment: In vitro MDCK-II permeability; format: in vitro ADME
Protocol: (§3) The oral bioavailability of compounds in terms of Caco-2 and MDCK-II permeability and the P-glycoprotein (P-gp) efflux ratio were assessed. […] Quantification was done by LC-MS/MS. P-gp substrate activity was assessed by the efflux ratio (the ratio of Papp in the B-to-A direction over that in the A-to-B direction). […] P-gp is an ATP-dependent transporter on the apical plasma membrane of enterocytes that functions to limit the entry of drugs into the cell.

[2] = tested on: STZ-NA-induced diabetic rats; experiment: Antidiabetic activity in STZ-NA-induced type 2 diabetic rats; conditions: for HbA1c / blood glucose levels / HDL-C / Hb levels / TC, TG, VLDL-C and LDL-C: 15 days; for blood glucose levels: vs diabetic control rats; for HDL-C / Hb levels / TC, TG, VLDL-C and LDL-C: vs disease control (STZ + NA)
Protocol: The test dose was fixed based on the predicted LD50 value. […] Diabetic rats were orally treated with the test compounds at a dose of 36 mg/kg body weight for a period of 15 days. Fasting blood glucose of control, diabetic-untreated and diabetic-treated rats were tested on Days 1, 3, 7 and 15 of the treatment period (Fig. 6A).
Male Wistar strain rats weighing about 160–200 g were used for animal studies. […] Rats were provided with rodent diet and water ad libitum. […] The animals were allowed to drink 5% glucose solution overnight to prevent STZ-NA-induced hypoglycemia[82],[83]. The rats were considered as diabetic if their blood glucose levels were above 250 mg/dL on the 3rd day after STZ-NA injection. The rats were divided into four groups of six animals in each group. Control animals received normal saline (Group I). Diabetic rats received STZ-NA injection (Group II). […] The blood glucose level of each group was checked at 1, 3, 7 and 15 Day by withdrawing blood from tail vein of the animal using glucose meter (ACCu-Chek active, Roche, Diagnostics USA).
After pharmacological screening for antidiabetic activity, the animals were subjected to overnight fasting and blood was collected from retro-orbital region under light anaesthesia for performing various biochemical experiments. All the biochemical experiments were performed using commercially available kits. Total Hb was estimated by cyanomethaemoglobin method, while HbA1c was estimated from whole blood using commercially available kits following the manufacturer guidelines (ERBA Diagnostics Inc, Accurex Biomedical Pvt. Ltd., Coral clinical systems, India). TG concentration was determined by GPO-POD enzymatic-colorimetric method. TC level was measured by the end point, CHOD-POD colorimetric methods. HDL-C was assayed by the method reported earlier. VLDL-C and LDL-C in plasma were calculated by the Friedewald formula: VLDL-C = TG/5; LDL-C = TC-(HDL-C + VLDL-C)[88]. Levels of serum urea, uric acid, and creatinine were measured using commercially available kits[89].
Rats were sacrificed under light anesthesia using diethylether at the end of the pharmacological and biochemical studies. […] Then, the tissue was sliced out into sections of 5 µm thickness by a rotator microtome and stained with hematoxylin-eosin. Obtained sections were examined by a Leica DME microscope, and representative photomicrographs were taken by a 7.1 megapixel Canon Power Shot S70 digital camera.

Caco-2 monolayers = experiment: In vitro Caco-2 permeability; format: in vitro ADME
Protocol: as §3, with “assessed. The in vitro intrinsic half-life (T1/2,int) and the apparent intrinsic clearance (CLint,app) of compounds were also measured after incubation with human liver microsomes at 37.5 °C[65].” for “assessed.”

[3] = XTT in vitro hepatotoxicity assay on HepG2 cells; format: cell-based, human; conditions: human, highest tested concentration (1000 μM), read-out: cell viability
Protocol: as §1, §2

[4] = In vitro MDCK-II permeability; format: in vitro ADME; conditions: dog; for Papp A→B at 150 min, 2 µM / Papp B→A at 150 min, 2 µM: pH 7.4/7.4, n = 2; for Papp at 150 min, 2 µM: based on Papp,A-B, read-out: Permeability Rank
Protocol: as §3

[5] = In vitro Caco-2 permeability; format: in vitro ADME; conditions: human; for Papp A→B at 150 min, 2 µM / Papp B→A at 150 min, 2 µM: Caco-2, 2 µM, pH 6.5/7.4, n = 2; for Papp at 150 min, 2 µM: Caco-2, based on Papp,A-B, read-out: Permeability Rank
Protocol: as §3, with “assessed. The in vitro intrinsic half-life (T1/2,int) and the apparent intrinsic clearance (CLint,app) of compounds were also measured after incubation with human liver microsomes at 37.5 °C[65].” for “assessed.”

P-gp = experiment: In vitro Caco-2 permeability; format: in vitro ADME; conditions: human; Caco-2, 2 µM, 150 min; read-out: Efflux Ratio (B > A/A > B)
Protocol: as §3, with “assessed. The in vitro intrinsic half-life (T1/2,int) and the apparent intrinsic clearance (CLint,app) of compounds were also measured after incubation with human liver microsomes at 37.5 °C[65].” for “assessed.”

[6] = 2 µM, 150 min, pH 7.4/7.4, n = 2
[7] = 36 mg/kg, light microscopy, hematoxylin-eosin
[8] = Caco-2, 2 µM, 150 min, pH 6.5/7.4, n = 2

CCCCNC(=O)CN1C(=O)S/C(=C\c2ccccc2)C1=O [1a]
cell viability compared with Rosiglitazone [1]: did not show any significant difference
Avg Papp A to B (MDCK-II monolayers; [6]): 1.8 ×10⁻⁶ cm/s
Avg Papp B to A (MDCK-II monolayers; [6]): 2.5 ×10⁻⁶ cm/s
Permeability Rank (MDCK-II monolayers; based on Papp,A-B): Low (Low, Papp,A-B < 5 × 10^−6 cm/sec)
HbA1c ([2]; 36 mg/kg oral): significantly prevented the increase
blood glucose levels ([2]; 36 mg/kg oral): significantly reduced
HDL-C ([2]; 36 mg/kg oral): increase
Hb levels ([2]; 36 mg/kg oral): significant increase
TC, TG, VLDL-C and LDL-C ([2]; 36 mg/kg oral): significant decrease
histological changes of pancreas (islets, β-cells) [2, 7]: restored to near normal
liver histopathology [2, 7]: no hepatic abnormalities
Avg Papp A to B (Caco-2 monolayers; [8]): 2.4 ×10⁻⁶ cm/s
Avg Papp B to A (Caco-2 monolayers; [8]): 14.3 ×10⁻⁶ cm/s
Permeability Rank (Caco-2 monolayers; Caco-2, based on Papp,A-B): Low (Low, Papp,A-B < 5 × 10^−6 cm/sec)

CCN(CC)C(=O)CN1C(=O)S/C(=C\c2ccccc2)C1=O [1i]
viability at 1000 µM [3]: 64 ± 3.93%
Papp A→B at 150 min, 2 µM [4]: 16.3 ×10⁻⁶ cm/s
Papp B→A at 150 min, 2 µM [4]: 11.9 ×10⁻⁶ cm/s
Papp at 150 min, 2 µM [4]: ≥ 5 ×10⁻⁶ cm/s
HbA1c ([2]; 36 mg/kg oral): significantly prevented the increase
blood glucose levels ([2]; 36 mg/kg oral): significantly reduced
HDL-C ([2]; 36 mg/kg oral): increase
Hb levels ([2]; 36 mg/kg oral): significant increase
TC, TG, VLDL-C and LDL-C ([2]; 36 mg/kg oral): significant decrease
histological changes of pancreas (islets, β-cells) [2, 7]: restored to near normal
Papp A→B at 150 min, 2 µM [5]: 23 ×10⁻⁶ cm/s
Papp B→A at 150 min, 2 µM [5]: 51.2 ×10⁻⁶ cm/s
Papp at 150 min, 2 µM [5]: ≥ 5 ×10⁻⁶ cm/s
efflux ratio at 150 min, 2 µM (P-gp): 2.7

CCCCNC(=O)CN1C(=O)S/C(=C\c2ccc(Cl)cc2)C1=O [3a]
cell viability compared with Rosiglitazone [1]: did not show any significant difference
Papp A→B at 150 min, 2 µM [4]: 0.8 ×10⁻⁶ cm/s
Papp B→A at 150 min, 2 µM [4]: 0.4 ×10⁻⁶ cm/s
Papp at 150 min, 2 µM [4]: < 5 ×10⁻⁶ cm/s
HbA1c ([2]; 36 mg/kg oral): significantly prevented the increase
blood glucose levels ([2]; 36 mg/kg oral): significantly reduced
HDL-C ([2]; 36 mg/kg oral): increase
Hb levels ([2]; 36 mg/kg oral): significant increase
TC, TG, VLDL-C and LDL-C ([2]; 36 mg/kg oral): significant decrease
blood glucose lowering activity compared with standard ([2]; 36 mg/kg oral, data for 15th Day): equivalent to the standard drug Pioglitazone
histological changes of pancreas (islets, β-cells) [2, 7]: restored to near normal
Papp A→B at 150 min, 2 µM [5]: 1.6 ×10⁻⁶ cm/s
Papp B→A at 150 min, 2 µM [5]: 19.3 ×10⁻⁶ cm/s
Papp at 150 min, 2 µM [5]: < 5 ×10⁻⁶ cm/s
efflux ratio at 150 min, 2 µM (P-gp): 3.2
